Biological target: Serine/threonine-protein kinase PLK1 (Homo sapiens, UniProt P53350)
Test: Fluorescent Polarization Binding Assay
Conditions: pH 8; 25 °C

Serine/threonine-protein kinase PLK1, sequence (P53350 whole entry): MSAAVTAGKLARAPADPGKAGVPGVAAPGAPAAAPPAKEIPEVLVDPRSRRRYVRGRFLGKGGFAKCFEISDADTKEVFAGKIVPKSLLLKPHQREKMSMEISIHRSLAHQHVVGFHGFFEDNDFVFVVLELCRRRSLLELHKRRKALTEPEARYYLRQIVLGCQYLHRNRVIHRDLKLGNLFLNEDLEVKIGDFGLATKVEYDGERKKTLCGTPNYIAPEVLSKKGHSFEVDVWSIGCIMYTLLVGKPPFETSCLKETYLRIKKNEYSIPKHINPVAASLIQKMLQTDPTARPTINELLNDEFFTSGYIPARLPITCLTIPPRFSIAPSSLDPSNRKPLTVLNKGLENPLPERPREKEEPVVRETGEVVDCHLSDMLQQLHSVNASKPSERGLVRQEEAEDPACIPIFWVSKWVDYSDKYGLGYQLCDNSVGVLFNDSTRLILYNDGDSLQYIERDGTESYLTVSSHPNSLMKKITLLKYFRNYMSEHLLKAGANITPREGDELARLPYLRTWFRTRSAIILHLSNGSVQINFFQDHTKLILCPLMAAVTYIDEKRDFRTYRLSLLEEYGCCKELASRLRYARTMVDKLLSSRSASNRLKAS

IC50: 550 µM
Compound: CNC(=O)c1cc(CCCN2CCOCC2)n(-c2ccccc2)c1C [US9175357, 5600]

— BindingDB's records for patent US9175357 (University of South Carolina, 2015)
